# Assay results: patent US8273774B2, “Phenoxypyridinylamide compounds” (AstraZeneca AB, priority 2008, dated 2012)
# Target: recombinant Human Phosphodiesterase B2 (PDE4B2) (Homo sapiens, UniProt Q07343)
# Experiment: Human Phosphodiesterase B2 Radiometric Assay
# Format: biochemical
# Details: 0.1 μg/mL recombinant PDE4B2; preincubated at 30 C for 30 min; [3H]cyclic AMP 8 nM, stopped after 20 min; yttrium silicate SPA beads; read-out: PDE4B2 pIC50 (converted)
# Procedure, shortened: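 SPA read-out: product 5′AMP binds yttrium silicate beads (added with 18 mM ZnSO4 after 20 min) in preference to [3H]cAMP substrate, given at 8 nM final.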
# Sequence of recombinant Human Phosphodiesterase B2 (PDE4B2) (Q07343 1-564 isoform Q07343-2): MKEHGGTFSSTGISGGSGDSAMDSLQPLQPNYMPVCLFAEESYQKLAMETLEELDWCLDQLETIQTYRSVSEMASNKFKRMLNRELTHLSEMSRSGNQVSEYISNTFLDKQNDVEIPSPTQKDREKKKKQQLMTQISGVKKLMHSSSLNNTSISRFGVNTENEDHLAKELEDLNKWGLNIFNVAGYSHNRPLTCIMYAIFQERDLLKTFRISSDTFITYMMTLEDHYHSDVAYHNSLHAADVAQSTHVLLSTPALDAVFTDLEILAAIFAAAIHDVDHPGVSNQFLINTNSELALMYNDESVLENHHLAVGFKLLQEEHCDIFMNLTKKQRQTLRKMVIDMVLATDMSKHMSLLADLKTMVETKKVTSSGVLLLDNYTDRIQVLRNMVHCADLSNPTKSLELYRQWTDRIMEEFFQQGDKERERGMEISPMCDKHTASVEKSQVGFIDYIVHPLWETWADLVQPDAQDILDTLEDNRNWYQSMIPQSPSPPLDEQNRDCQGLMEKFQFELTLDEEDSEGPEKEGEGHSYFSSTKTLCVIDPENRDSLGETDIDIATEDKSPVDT
row,Compound,IC50
1,"C[C@@H]1CN(Cc2cc(-c3cccc(Oc4ncc(F)cc4C(=O)N[C@H]4CC[C@@H](NC(=O)c5cc6n(n5)CCCC6)CC4)c3)ccc2O)C[C@H](C)N1 [Example 101, N-((1s,4s)-4-(2-(3′-(((3R,5S)-3,5-dimethylpiperazin-1-yl)methyl)-4′-hydroxybiphenyl-3-yloxy)-5-fluoronicotinamido)cyclohexyl)-4,5,6,7-tetrahydropyrazolo[1,5-a]pyridine-2-carboxamide]",0.0631 nM
2,"Cc1nc(C(=O)N[C@H]2CC[C@@H](NC(=O)c3cc(F)cnc3Oc3cccc(-c4ccc(CCN5C[C@@H](C)N[C@@H](C)C5)cc4)c3)CC2)cs1 [Example 86, N-((1s,4s)-4-(2-(4′-(2-((3S,5R)-3,5-dimethylpiperazin-1-yl)ethyl)biphenyl-3-yloxy)-5-fluoronicotinamido)cyclohexyl)-2-methylthiazole-4-carboxamide]",0.0316 nM
3,"C[C@@H]1CN(Cc2ccc(-c3cccc(Oc4ncc(F)cc4C(=O)N[C@H]4CC[C@@H](NC(=O)c5cc6n(n5)CCCC6)CC4)c3)c(CN3CCOCC3)c2)C[C@H](C)N1 [Example 124, N-((1s,4s)-4-(2-(4′-(((3S,5R)-3,5-dimethylpiperazin-1-yl)methyl)-2′-(morpholinomethyl)biphenyl-3-yloxy)-5-fluoronicotinamido)cyclohexyl)-4,5,6,7-tetrahydropyrazolo[1,5-a]pyridine-2-carboxamide]",0.0501 nM
4,"Cc1cccc2nc(C(=O)N[C@H]3CC[C@@H](NC(=O)c4cc(F)cnc4Oc4cccc(-c5ccc(CN6CCCN(C)CC6)cc5CN5CCOCC5)c4)CC3)cn12 [Example 185, N-((1s,4s)-4-(5-Fluoro-2-(4′-((4-methyl-1,4-diazepan-1-yl)methyl)-2′-(morpholinomethyl)biphenyl-3-yloxy)nicotinamido)cyclohexyl)-5-methylimidazo[1,2-a]pyridine-2-carboxamide]",0.02 nM
5,"Cn1ccc(C(=O)N[C@H]2CC[C@@H](NC(=O)c3cc(F)cnc3Oc3cccc(-c4ccc(O)cc4CN4CCOCC4)c3)CC2)n1 [Example 49, 5-fluoro-2-(4′-hydroxy-2′-(morpholinomethyl)biphenyl-3-yloxy)-N-((1s,4s)-4-(1-methyl-1H-pyrazole-3-carboxamido)cyclohexyl)nicotinamide]",0.0251 nM
6,"O=C(N[C@H]1CC[C@@H](NC(=O)c2cc(F)cnc2Oc2cccc(-c3ccc(O)cc3CN3CCOCC3)c2)CC1)c1cc(O)c2ccccc2n1 [Example 41, N-((1s,4s)-4-(5-fluoro-2-(4′-hydroxy-2′-(morpholinomethyl)biphenyl-3-yloxy)nicotinamido)cyclohexyl)-4-hydroxyquinoline-2-carboxamide]",0.1 nM
7,"Cc1cc(C(=O)N[C@H]2CC[C@@H](NC(=O)c3cc(F)cnc3Oc3cccc(-c4ccc(CCN5CCC(N6CCCC6)CC5)cc4)c3)CC2)nn1C [Example 154, N-((1s,4s)-4-(1,5-dimethyl-1H-pyrazole-3-carboxamido)cyclohexyl)-5-fluoro-2-(4′-(2-(4-(pyrrolidin-1-yl)piperidin-1-yl)ethyl)biphenyl-3-yloxy)nicotinamide]",0.0316 nM
8,"Cc1csc(C(=O)N[C@H]2CC[C@@H](NC(=O)c3cc(F)cnc3Oc3cccc(-c4ccc(CCCN5CCNCC5)cc4)c3)CC2)n1 [Example 148, N-((1s,4s)-4-(5-fluoro-2-(4′-(3-(piperazin-1-yl)propyl)biphenyl-3-yloxy)nicotinamido)cyclohexyl)-4-methylthiazole-2-carboxamide]",0.0398 nM
9,"Cc1cc(C)n2ncc(C(=O)N[C@H]3CC[C@@H](NC(=O)c4cc(F)cnc4Oc4cccc(-c5ccc(CN6CCCN(CCO)CC6)cc5CN5CCSCC5)c4)CC3)c2n1 [Example 182, N-((1s,4s)-4-(5-Fluoro-2-(4′-((4(2-hydroxyethyl)-1,4-diazepan-1-yl)methyl)-2′-(thiomorpholinomethyl)biphenyl-3-yloxy)nicotinamido)cyclohexyl)-5,7-dimethylpyrazolo[1,5-a]pyrimidine-3-carboxamide]",0.0398 nM
10,"C[C@@H]1CN(Cc2ccc(-c3cccc(Oc4ncc(F)cc4C(=O)N[C@H]4CC[C@@H](NC(=O)c5cc6n(n5)CCCC6)CC4)c3)c(CN3CCSCC3)c2)C[C@H](C)N1 [Example 188, N-((1s,4s)-4-(2-(4′-(((3S,5R)-3,5-dimethylpiperazin-1-yl)methyl)-2′-(thiomorpholinomethyl)biphenyl-3-yloxy)-5-fluoronicotinamido)cyclohexyl)-4,5,6,7-tetrahydropyrazolo[1,5-a]pyridine-2-carboxamide]",0.02 nM
11,"C[C@@H]1CN(Cc2ccc(-c3cccc(Oc4ncc(F)cc4C(=O)N[C@H]4CC[C@@H](NC(=O)c5ccc6ccccc6n5)CC4)c3)c(CN3CCOCC3)c2)C[C@H](C)N1 [Example 147, N-((1s,4s)-4-(2-(4′-(((3S,5R)-3,5-dimethylpiperazin-1-yl)methyl)-2′-(morpholinomethyl)biphenyl-3-yloxy)-5-fluoronicotinamido)cyclohexyl)quinoline-2-carboxamide]",0.0501 nM
12,"COCc1nc(C(=O)N[C@H]2CC[C@@H](NC(=O)c3cc(F)cnc3Oc3cccc(-c4ccc(O)cc4CN4CCOCC4)c3)CC2)cs1 [Example 63, N-((1s,4s)-4-(5-fluoro-2-(4′-hydroxy-2′-(morpholinomethyl)biphenyl-3-yloxy)nicotinamido)cyclohexyl)-2-(methoxymethyl)thiazole-4-carboxamide]",0.126 nM
13,"O=C(N[C@H]1CC[C@@H](NC(=O)c2cc(F)cnc2Oc2cccc(-c3ccc(CCN4CCNCC4)cc3)c2)CC1)c1cn2cc(F)ccc2n1 [Example 117, 6-fluoro-N-((1s,4s)-4-(5-fluoro-2-(4′-(2-(piperazin-1-yl)ethyl)biphenyl-3-yloxy)nicotinamido)cyclohexyl)imidazo[1,2-a]pyridine-2-carboxamide]",0.1 nM
14,"CC(C)NC(=O)CN1CCN(Cc2ccc(-c3cccc(Oc4ncc(F)cc4C(=O)N[C@H]4CC[C@@H](NC(=O)c5cc6n(n5)CCCC6)CC4)c3)c(CN3CCOCC3)c2)CC1 [Example 200, N-((1s,4s)-4-(5-fluoro-2-(4′-((4-(2-(isopropylamino)-2-oxoethyl)piperazin-1-yl)methyl)-2′-(morpholinomethyl)biphenyl-3-yloxy)nicotinamido)cyclohexyl)-4,5,6,7-tetrahydropyrazolo[1,5-a]pyridine-2-carboxamide]",0.0251 nM
15,"Cc1nc(C(=O)N[C@H]2CC[C@@H](NC(=O)c3cc(F)cnc3Oc3cccc(-c4ccc(O)cc4CN4C[C@@H](C)O[C@@H](C)C4)c3)CC2)cs1 [Example 24, N-((1s,4s)-4-(2-(2′-(((2S,6R)-2,6-dimethylmorpholino)methyl)-4′-hydroxybiphenyl-3-yloxy)-5-fluoronicotinamido)cyclohexyl)-2-methylthiazole-4-carboxamide]",0.1 nM
16,"Cc1nc(C(=O)N[C@H]2CC[C@@H](NC(=O)c3cc(F)cnc3Oc3cccc(-c4ccc(CCCN5CCCN(C)CC5)cc4)c3)CC2)cs1 [Example 134, N-((1s,4s)-4-(5-fluoro-2-(4′-(3-(4-methyl-1,4-diazepan-1-yl)propyl)biphenyl-3-yloxy)nicotinamido)cyclohexyl)-2-methylthiazole-4-carboxamide]",0.0631 nM
17,"Cc1nc(C(=O)N[C@H]2CC[C@@H](NC(=O)c3cc(F)cnc3Oc3cccc(-c4ccc(CN5CCOCC5)cc4O)c3)CC2)cs1 [Example 56, N-((1s,4s)-4-(5-fluoro-2-(2′-hydroxy-4′-(morpholinomethyl)biphenyl-3-yloxy)nicotinamido)cyclohexyl)-2-methylthiazole-4-carboxamide]",0.0251 nM
18,"Cn1ccc(C(=O)N[C@H]2CC[C@@H](NC(=O)c3cc(F)cnc3Oc3cccc(-c4ccc(CN5CCSCC5)cc4CN4CCOCC4)c3)CC2)n1 [Example 199, 5-fluoro-N-((1s,4s)-4-(1-methyl-1H-pyrazole-3-carboxamido)cyclo-hexyl)-2-(2′-(morpholinomethyl)-4′-(thiomorpholinomethyl)biphenyl-3-yloxy)nicotinamide]",0.02 nM
19,"Cc1cccc2nc(C(=O)N[C@H]3CC[C@@H](NC(=O)c4cc(F)cnc4Oc4cccc(-c5ccc(CN6C[C@@H](C)N[C@@H](C)C6)cc5)c4)CC3)cn12 [Example 48, N-((1s,4s)-4-(2-(4′-(((3S,5R)-3,5-dimethylpiperazin-1-yl)methyl)biphenyl-3-yloxy)-5-fluoronicotinamido)cyclohexyl)-5-methylimidazo[1,2-a]pyridine-2-carboxamide]",0.0631 nM
20,"O=C(N[C@H]1CC[C@@H](NC(=O)c2cc(F)cnc2Oc2cccc(-c3ccc(O)cc3CN3CCOCC3)c2)CC1)c1csc(CO)n1 [Example 58, N-((1s,4s)-4-(5-fluoro-2-(4′-hydroxy-2′-(morpholinomethyl)biphenyl-3-yloxy)nicotinamido)cyclohexyl)-2-(hydroxymethyl)thiazole-4-carboxamide]",0.0631 nM
21,"Cc1cc(C(=O)N[C@H]2CC[C@@H](NC(=O)c3cc(F)cnc3Oc3cccc(-c4ccc(CN5C[C@@H](C)N[C@@H](C)C5)cc4)c3)CC2)nn1C [Example 62, N-((1s,4s)-4-(1,5-dimethyl-1H-pyrazole-3-carboxamido)cyclohexyl)-2-(4′-(((3S,5R)-3,5-dimethylpiperazin-1-yl)methyl)biphenyl-3-yloxy)-5-fluoronicotinamide]",0.0251 nM
22,"C[C@@H]1CN(Cc2ccc(-c3cccc(Oc4ncc(F)cc4C(=O)N[C@H]4CC[C@@H](NC(=O)c5csc(CO)n5)CC4)c3)cc2)C[C@H](C)N1 [Example 70, N-((1s,4s)-4-(2-(4′-(((3S,5R)-3,5-dimethylpiperazin-1-yl)methyl)biphenyl-3-yloxy)-5-fluoronicotinamido)cyclohexyl)-2-(hydroxymethyl)thiazole-4-carboxamide]",0.0794 nM
23,"C[C@@H]1CN(CCCc2ccc(-c3cccc(Oc4ncc(F)cc4C(=O)N[C@H]4CC[C@@H](NC(=O)c5cc6n(n5)CCC6)CC4)c3)cc2)C[C@H](C)N1 [Example 140, N-((1s,4s)-4-(2-(4′-(3-((3S,5R)-3,5-dimethylpiperazin-1-yl)propyl)biphenyl-3-yloxy)-5-fluoronicotinamido)cyclohexyl)-5,6-dihydro-4H-pyrrolo[1,2-b]pyrazole-2-carboxamide]",0.0316 nM
